According to patent US20230142274A1 (SIMCERE PHARMACEUTICAL CO., LTD., priority 2020, published 2023):
Like-named read-outs stand apart in the source and are kept apart here.

Experiment: Pharmacokinetic experiment in mouse
Type: in vivo
Details: female CB17-SCID mice; for half-life: mouse, plasma, read-out: Drug Elimination Half-life (converted)
Source text: CB17-SCID mice were purchased from Beijing Vital River Laboratory Animal Technology Co., Ltd.
DMSO, HP-β-CD (hydroxypropyl-β-cyclodextrin), PEG400 (polyethylene glycol 400), and Vitamin E TPGS (D-α-tocopherol polyethylene glycol 1000 succinate) were purchased from Sigma.
Six female CB17-SCID mice (20 g to 30 g, aged 4 to 6 weeks) were divided randomly into two groups, with 3 mice in each group. In Group 1, the compound in a vehicle of an aqueous solution containing 5% dimethyl sulfoxide and 95% hydroxypropyl-β-cyclodextrin (10%, w/v) was administered by intravenous injection via tail vein. In Group 2, a corresponding dose of the compound in a vehicle of an aqueous solution containing 30% polyethylene glycol 400 and 70% D-α-tocopherol polyethylene glycol 1000 succinate (10%, w/v) was orally administered. The animals were fed normally with food and water before experiment. The mice in each group underwent intravenous blood collection before administration and at 0.083 h (intravenous injection group only), 0.25 h, 0.5 h, 1 h, 2 h, 4 h, 6 h, 8 h, and 24 h after administration. The collected whole blood samples were placed in K2EDTA anticoagulation tubes and centrifuged for 5 min (4000 rpm, 4° C.) to collect the plasma for testing.
10 μL of the mouse plasma sample was taken, and 150 μL of acetonitrile solvent (containing the internal standard compound) was added to precipitate protein. After the resultant was vortexed for 0.5 min and centrifuged (4700 rpm, 4° C.) for 15 min, the supernatant was subjected to 2-fold dilution with water containing 0.05% (v/v) FA and was then subjected to quantitative measurement in LC-MS/MS system (AB Sciex Triple Quad 6500+). A calibration standard curve was prepared in CB17-SCID mouse plasma along with quality control samples to determine the plasma concentration. As for a 10× diluted sample, 2 μL of sample was taken and 18 μL of blank plasma was added. After being vortexed for 0.5 min, the mixture was added with 300 μL of acetonitrile solvent (containing the internal standard compound) so as to precipitate protein. The rest of the processing steps were the same as those for the undiluted samples.

SMILES	Drug Exposure (oral dose 25 mg/kg)	Max. Drug Conc. (oral dose 25 mg/kg)	Peak Time of Drug Conc. (oral dose 25 mg/kg)	half-life (oral dose 25 mg/kg)	also measured
COc1ccc(-c2ccc(-c3cnc([C@H]4CC[C@H](NC(=O)OC(C)C)CC4)s3)c([S@@](=N)(=O)C3CC3)c2)cn1 (stereo in doubt) [Example 94]	125.779 µg·h/mL	19257 ng/mL	1.3 h	–	Drug Elimination Half-life (oral dose 25 mg/kg): 3.5 h
CC(C)OC(=O)NC1CCC(c2ncc(-c3ccc(Nc4ccc(F)cn4)cc3S(=N)(=O)C3CC3)s2)CC1 (stereo not drawn) [Example 81, isopropyl trans-N-[4-[5-[2-(cyclopropylsulfonimidoyl)]-4-[(5-fluoro-2-pyridyl)amino]phenyl]thiazol-2-yl]cyclohexyl]carbamate]	223.309 µg·h/mL	13563 ng/mL	5 h	10 h	–
CC(C)OC(=O)Nc1ccc(-c2cnc(C3CCC(NC(=O)OC(C)C)CC3)s2)c(S(=N)(=O)C(C)C)c1 (stereo not drawn) [Example 3, isopropyl trans-N-[4-[2-[4-(isopropoxycarbonylamino)cyclohexyl]thiazol-5-yl]-3-(isopropylsulfonimidoyl)phenyl]carbamate]	–	–	–	–	Drug Exposure (oral dose 80 mg/kg): 271.377 µg·h/mL; Max. Drug Conc. (oral dose 80 mg/kg): 15438 ng/mL; Peak Time of Drug Conc. (oral dose 80 mg/kg): 2.8 h; half-life (oral dose 80 mg/kg): 32 h
Cc1cc(Nc2ccc(-c3cnc([C@H]4CC[C@H](NC(=O)OC(C)C)CC4)s3)c(S(=O)(=O)C3CC3)c2)n[nH]1 [Example 48, isopropyl trans-(4-(5-(2-(cyclopropylsulfonyl)-4-((5-methyl-1H-pyrazol-3-yl)amino)phenyl)thiazol-2-yl)cyclohexyl)carbamate]	–	–	–	–	Drug Exposure (oral dose 30 mg/kg): 203.497 µg·h/mL; Max. Drug Conc. (oral dose 30 mg/kg): 17657 ng/mL; Peak Time of Drug Conc. (oral dose 30 mg/kg): 2 h; half-life (oral dose 30 mg/kg): 7.6 h
CC(C)OC(=O)Nc1ccc(-c2cnc([C@H]3CC[C@H](NC(=O)OC(C)C)CC3)s2)c(S(=N)(=O)C2CC2)c1 (stereo partly drawn) [Example 68, isopropyl trans-N-[3-(cyclopropylsulfonimidoyl)-4-[2-[4-(isopropoxycarbonylamino)cyclohexyl]thiazol-5-yl]phenyl]carbamate]	156.699 µg·h/mL	14798 ng/mL	1.3 h	5 h	–
Cc1cc(Nc2ccc(-c3cnc(C4CCC(NC(=O)OC(C)C)CC4)s3)c(S(=N)(=O)C3CC3)c2)n[nH]1 (stereo not drawn) [Example 50, isopropyl trans-N-[4-[5-[2-(cyclopropylsulfonimidoyl)-4-]((5-methyl-1H-pyrazol-3-yl)amino]phenyl]thiazol-2-yl]cyclohexyl]carbamate]	18.187 µg·h/mL	4076 ng/mL	1 h	4.7 h	–
Cc1cc(Nc2ccc(-c3cnc([C@H]4CC[C@H](NC(=O)OC(C)C)CC4)s3)c(S(=O)(=O)C3COC3)c2)n[nH]1 [Example 92, isopropyl trans-N-[4-[5-[4-[(5-methyl-1H-pyrazol-3-yl)amino]-2-(oxetan-3-ylsulfonyl)phenyl]thiazol-2-yl]cyclohexyl]carbamate]	40.08 µg·h/mL	8038 ng/mL	1 h	3.6 h	–
CC(C)OC(=O)N[C@H]1CC[C@H](c2ncc(-c3ccc(Nc4cn(C)nn4)cc3S(=N)(=O)C3CC3)s2)CC1 (stereo partly drawn) [Example 54]	47.683 µg·h/mL	6698 ng/mL	1 h	3.1 h	–
CC(C)OC(=O)Nc1ccc(-c2cnc([C@H]3CC[C@H](NC(=O)OC(C)C)CC3)s2)c(P(C)(C)=O)c1 [Example 1, isopropyl trans-N-[3-dimethylphosphoryl-4-[2-[4-(isopropoxycarbonylamino)cyclohexyl]thiazol-5-yl]phenyl]carbamate]	–	–	–	–	Drug Exposure (oral dose 80 mg/kg): 211.819 µg·h/mL; Max. Drug Conc. (oral dose 80 mg/kg): 14640 ng/mL; Peak Time of Drug Conc. (oral dose 80 mg/kg): 2.3 h; half-life (oral dose 80 mg/kg): 3.7 h
